Measurements as given in article PMC9416004, “A Versatile Class of 1,4,4-Trisubstituted Piperidines Block Coronavirus Replication In Vitro” (Pharmaceuticals, 2022).
Read-outs that look alike come from different tables or passages of the source.

What was measured:
[1] = target: SARS-CoV-2 nsp5 main protease (M^pro) (Severe acute respiratory syndrome coronavirus 2, UniProt P0DTD1); assay: FRET-based M^pro enzymatic assay; type: biochemical
Method: Serial dilutions of the compounds were incubated with purified nsp5 protein in the presence of substrate (Dabcyl-KTSAVLQ↓SGFRKM-Edans-NH2), and peptide cleavage was followed by an increase in fluorescence. The compounds’ IC50 values were determined by Hill curve fitting. Values are the mean ± SEM (N = 3).
After transforming the pGEX-6P-1 plasmid in E. coli BL21 DE3 gold, nsp5 production was stimulated by overnight induction with 250 μM IPTG at a temperature of 17 °C. After centrifugation, the bacteria were resuspended in buffer consisting of: 50 mM Tris pH 8; 300 mM NaCl; 5 mM MgSO4; 1 mM PMSF; 10 μg/mL DNAse I; 0.25 mg/mL Lysozyme; 0.1%Triton X-100; and 10% glycerol. The cells were lysed by three cycles of sonication and centrifugation. The nsp5 protein was bound to Co-NTA agarose beads and eluted in lysis buffer containing 250 mM of imidazole. Next, the protein product was concentrated on a Vivaspin 20 centrifugal concentrator (10 kDa cut-off; GE Healthcare) and imidazole was removed by dialysis. Finally, the purified nsp5 was stored at −80 °C with 50% glycerol.
M^pro enzymatic assay. The fluorescence resonance energy transfer (FRET)-based protease assay was performed in black 384-well plates. Briefly, serial dilutions of the compounds were incubated with 80 nM nsp5 protein and 5 μM peptide substrate (Dabcyl-KTSAVLQ↓SGFRKM-Edans-NH2; Genscript) in buffer consisting of: 20 mM HEPES pH 6.5; 120 mM NaCl; 0.4 mM EDTA; 4 mM dithiothreitol; and 10% glycerol. The final DMSO content was 0.5%. Cleavage of the substrate was monitored for 40 min by measuring the increasing fluorescence in a Tecan Safire 2 plate reader (wavelength settings: excitation at 335 nm and emission at 493 nm). For each condition, enzyme activity was derived from the slope for the linear part of the curve and expressed relative to the activity in the condition receiving no compound. To determine the IC50 values, GraphPad Prism software was used to plot the % of enzyme activity against compound concentration and then fit the curves according to the equation Y = 100/(1 + (X/IC50)^HillSlope).

[2] = test system: human embryonic lung (HEL) fibroblast cells; details: mock-infected HEL cells; microscopically visible alterations in cell morphology
[3] = target: SARS-CoV-2 nsp10/nsp16 2'O-MTase (Severe acute respiratory syndrome coronavirus 2, UniProt P0DTD1); assay: Radioactive filter-binding MTase assay, nsp10/nsp16; type: biochemical; details: compound concentration of 200 µM
SARS-CoV-2 = assay: RT-qPCR-based SARS-CoV-2 viral load reduction assay in A549-AT cells; type: cell-based; details: for Antiviral activity EC99: 100-fold reduction in viral RNA copies in supernatant at day 3 p.i.; for EC90: Severe acute respiratory syndrome coronavirus 2, 72 h, 10-fold reduction in viral RNA copies in supernatant at day 3 p.i., read-out: Antiviral activity EC90
HCoV-229E [4] = assay: Cytopathic effect (CPE) reduction assay with HCoV-229E in HEL cells; type: cell-based, human coronavirus 229E; details: for EC50: Human coronavirus 229E, 120 h, HCoV-229E-infected HEL cells, five days at 35 °C; for Selectivity Index MTS: ratio of CC50 to EC50-MTS; for Selectivity Index MTS / Selectivity Index Microscopy: only values of 10 or higher shown; for Selectivity Index Microscopy: ratio of MCC to EC50-microscopy
[5] = target: SARS-CoV-2 nsp14 N7-MTase (Severe acute respiratory syndrome coronavirus 2, UniProt P0DTD1); assay: Radioactive filter-binding MTase assay, nsp14; type: biochemical; details: compound concentration of 200 µM
HCoV-229E [6] = assay: One-cycle time-of-compound addition (TOA) assay with HCoV-229E in HEL cells; type: cell-based, human coronavirus 229E; details: compound added at 8 h p.i.; HEL cells lysed at 16 h p.i.; 33 15 µM, GC376 25 µM, GS-441524 20 µM, K22 15 µM
in vitro [7] = details: human
in vitro [8] = details: human; remark: listed apart in the source
[9] = protection against virus-induced CPE by MTS cell viability assay, read-out: Antiviral EC50 MTS
[10] = protection against virus-induced CPE by microscopic scoring, read-out: Antiviral EC50 Microscopy

Compound | IC50 [1] [µM] | Cytotoxicity MCC (minimal cytotoxic concentration) [2] [µM] | inhibition at 200 µM [3] [%] | Antiviral activity EC99 (SARS-CoV-2) [µM] | EC90 (SARS-CoV-2) [µM] | EC50 (HCoV-229E [4]; [9]) [µM] | EC50 (HCoV-229E [4]; [10]) [µM] | Selectivity Index MTS (HCoV-229E [4]) | inhibition at 200 µM [5] [%] | Selectivity Index Microscopy (HCoV-229E [4]) | inhibition of viral RNA synthesis (HCoV-229E [6]) | CC50 (in vitro [7]) [µM] | CC50 (in vitro [8]) [µM]
CC(C)(C)OC(=O)NC(Cc1ccccc1)C(=O)N(Cc1ccccc1)C1(C(=O)NCc2ccccc2)CCN(Cc2ccc(F)cc2)CC1 (stereo not drawn) [Compound 60, Tert-butyl(1-(benzyl(4-benzylcarbamoyl-1-(4-fluorobenzyl)piperidin-4-yl)amino)-1-oxo-3-phenylpropan-2-yl)carbamate] | 68 ± 21 | ≥100 | 80 | 5.2 | 2.2 | 4 ± 0.1 | 4.5 ± 0.2 | >25 | – | – | – | – | –
COC(=O)C[C@H](NC(=O)OCc1ccccc1)C(=O)N(Cc1ccc(F)cc1)C1(C(=O)NCc2ccccc2)CCN(Cc2ccccc2)CC1 [Compound 34] | 38 ± 5 | 81 | – | 13 | 8 | 3.4 ± 0.4 | 3.1 ± 0.1 | 22 | 80 | 26 | – | – | –
N#C[C@@]1(c2ccc3c(N)ncnn23)O[C@H](CO)[C@@H](O)[C@H]1O [GS-441524, reference compound] | – | >100 | – | 4.6 | 3.2 | 2.3 ± 0.2 | 3.5 | >43 | – | >29 | ~ 90% | – | –
COC(=O)C[C@H](NC(=O)OCc1ccccc1)C(=O)N(Cc1ccccc1)C1(C(=O)NCc2ccccc2)CCN(Cc2ccccc2)CC1 [Compound 33] | 64 ± 8 | >100 | – | 14 | 9.3 | 3.3 ± 0.4 | 3 ± 0.1 | >30 | – | >33 | losing some activity | 90 | > 100
O=C(N/C(=C\c1ccccc1)C(=O)N1CCC(O)(c2ccc(Br)cc2)CC1)c1ccccc1 [Compound K22, (Z)-N-[3-[4-(4-bromophenyl)-4-hydroxypiperidin-1-yl]-3-oxo-1-phenylprop-1-en-2-yl]benzamide, reference compound] | – | 50 | – | – | – | 3.6 ± 0.6 | 2.6 ± 0.5 | – | – | 19 | 100% | – | 28 ± 3
